Each compound was assayed against T1, full-length human PKCι (Homo sapiens, UniProt P41743) (assay: PKCι IC50 IMAP fluorescence polarisation assay, full-length enzyme, 150 μM ATP). Settings: read-out: IC50 in IMAP assay against full length PKCi at 150 μM ATP.
T1 construct: Recombinant, full-length human PKCι expressed in Sf21 insect cells is also commercially available; purchased EMD Millipore; host or cells: Sf21 insect cells (baculovirus)
T1 sequence (P41743 1-596): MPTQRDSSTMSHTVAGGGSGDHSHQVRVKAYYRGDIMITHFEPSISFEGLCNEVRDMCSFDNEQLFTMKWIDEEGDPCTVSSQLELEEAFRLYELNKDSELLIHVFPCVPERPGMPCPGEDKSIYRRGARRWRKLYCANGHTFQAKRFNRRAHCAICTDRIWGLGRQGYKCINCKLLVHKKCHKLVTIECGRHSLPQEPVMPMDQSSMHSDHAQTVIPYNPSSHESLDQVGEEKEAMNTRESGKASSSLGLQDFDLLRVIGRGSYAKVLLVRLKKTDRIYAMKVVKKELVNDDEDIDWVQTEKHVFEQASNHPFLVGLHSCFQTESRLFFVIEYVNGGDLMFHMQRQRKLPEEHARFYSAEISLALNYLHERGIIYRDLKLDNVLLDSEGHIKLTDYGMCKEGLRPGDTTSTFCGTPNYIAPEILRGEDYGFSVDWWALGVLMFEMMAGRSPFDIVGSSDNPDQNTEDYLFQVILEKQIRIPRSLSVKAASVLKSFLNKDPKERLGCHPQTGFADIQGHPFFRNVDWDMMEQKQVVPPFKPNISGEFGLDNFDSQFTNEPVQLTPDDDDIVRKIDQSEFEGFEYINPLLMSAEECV
Type: biochemical
Summary of the method: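 IMAP fluorescence polarisation kinase assay: 15 pM baculovirus-expressed human PKCiota with 100 nM FAM-pseudosubstrate peptide and 150 μM ATP, 1 h at 25 °C. IMAP detection reagent then 2 h at 25 °C before FP measurement. Inhibition referenced to no-compound and no-enzyme controls for IC50 fitting.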

For `Cc1ccc(-c2cc3c(-c4nc(N5CCNCC5)c5c(C6CC6)cncc5n4)ccnc3[nH]2)s1` [Example 41, 5-Cyclopropyl-2-[2-(5-methyl-thiophen-2-yl)-1H-pyrrolo[2,3-b]pyridin-4-yl]-4-piperazin-1-yl-pyrido[3,4-d]pyrimidine], which IC50 is on record?
Its IC50 is under 100 nM.

For `Cc1ccc(-c2cc3c(-c4nc(N5CCNCC5)c5c(C6CC6)cncc5n4)ccnc3[nH]2)o1` [Example 42, 5-Cyclopropyl-2-[2-(5-methyl-furan-2-yl)-1H-pyrrolo[2,3-b]pyridin-4-yl]-4-piperazin-1-yl-pyrido[3,4-d]pyrimidine], which IC50 is on record?
The IC50 was under 100 nM.

How did the IC50 turn out when `Fc1ncccc1-c1cc2c(-c3nc(N4CCNCC4)c4c(C5CC5)cncc4n3)ccnc2[nH]1` [Example 43, 5-Cyclopropyl-2-[2-(2-fluoro-pyridin-3-yl)-1H-pyrrolo[2,3-b]pyridin-4-yl]-4-piperazin-1-yl-pyrido[3,4-d]pyrimidine] was run?
The IC50 was under 100 nM.

With `CN(c1nc(-c2ccnc3[nH]c4ccccc4c23)nc2cncc(C3CCC3)c12)C1CCCNCC1` (stereo not drawn) [Example 44, Azepan-4-yl-[5-cyclobutyl-2-(9H-pyrido[2,3-b]indol-4-yl)-pyrido[3,4-d]pyrimidin-4-yl]-methyl-amine] as the compound, how does the IC50 read?
The IC50 was under 100 nM.

With `CN(c1nc(-c2ccnc3[nH]c(-c4cc(Cl)ccc4Cl)cc23)nc2cncc(C3CC3)c12)C1CCNCC1(C)C` (stereo not drawn) [Example 45, {5-Cyclopropyl-2-[2-(2,5-dichloro-phenyl)-1H-pyrrolo[2,3-b]pyridin-4-yl]-pyrido[3,4-d]pyrimidin-4-yl}-(3,3-dimethyl-piperidin-4-yl)-methyl-amine] as the compound, how does the IC50 read?
The IC50 was under 100 nM.

`Clc1ccc(Cl)c(-c2cc3c(-c4nc(N5CCNCC5)c5c(C6CC6)cncc5n4)ccnc3[nH]2)c1` [Example 46, 5-Cyclopropyl-2-[2-(2,5-dichloro-phenyl)-1H-pyrrolo[2,3-b]pyridin-4-yl]-4-piperazin-1-yl-pyrido[3,4-d]pyrimidine] was tested. Which IC50 did it give?
The IC50 was under 100 nM.

How did the IC50 turn out when `CC1(C)CNCCC1Nc1nc(-c2ccnc(Nc3ccccc3)c2)nc2cncc(C3CC3)c12` (stereo not drawn) [Example 47, [5-Cyclopropyl-2-(2-phenylamino-pyridin-4-yl)-pyrido[3,4-d]pyrimidin-4-yl]-(3,3-dimethyl-piperidin-4-yl)-amine] was run?
Its IC50 is under 100 nM.

With `CC1(C)CNCCC1Nc1nc(-c2ccnc(Nc3ccc(F)cn3)c2)nc2cncc(C3CC3)c12` (stereo not drawn) [Example 48, {5-Cyclopropyl-2-[2-(5-fluoro-pyridin-2-ylamino)-pyridin-4-yl]-pyrido[3,4-d]pyrimidin-4-yl}-(3,3-dimethyl-piperidin-4-yl)-amine] as the compound, how does the IC50 read?
The IC50 was under 100 nM.

With `CC1(C)CNCCC1Nc1nc(-c2ccnc(Nc3ncccc3F)c2)nc2cncc(C3CC3)c12` (stereo not drawn) [Example 49, {5-Cyclopropyl-2-[2-(3-fluoro-pyridin-2-ylamino)-pyridin-4-yl]-pyrido[3,4-d]pyrimidin-4-yl}-(3,3-dimethyl-piperidin-4-yl)-amine] as the compound, how does the IC50 read?
The IC50 was under 100 nM.

How did the IC50 turn out when `CC1(C)CNCCC1Nc1nc(-c2ccnc(Nc3cc(F)ccn3)c2)nc2cncc(C3CC3)c12` (stereo not drawn) [Example 50, {5-Cyclopropyl-2-[2-(4-fluoro-pyridin-2-ylamino)-pyridin-4-yl]-pyrido[3,4-d]pyrimidin-4-yl}-(3,3-dimethyl-piperidin-4-yl)-amine] was run?
The IC50 was under 100 nM.

`CC1(C)CNCCC1Nc1nc(-c2ccnc(Nc3cc(C(F)(F)F)ccn3)c2)nc2cncc(C3CC3)c12` (stereo not drawn) [Example 51, {5-Cyclopropyl-2-[2-(4-trifluoromethyl-pyridin-2-ylamino)-pyridin-4-yl]-pyrido[3,4-d]pyrimidin-4-yl}-(3,3-dimethyl-piperidin-4-yl)-amine] was tested. Which IC50 did it give?
Its IC50 is under 100 nM.

With `CC(C)(C)c1csc(Nc2cc(-c3nc(N4CCNCC4)c4c(C5CC5)cncc4n3)ccn2)n1` [Example 52, (4-tert-Butyl-thiazol-2-yl)-[4-(5-cyclopropyl-4-pipcrazin-1-yl-pyrido[3,4-d]pyrimidin-2-yl)-pyridin-2-yl]-amine] as the compound, how does the IC50 read?
Its IC50 is 100 to 1000 nM.

Reference: patent US10414763B2 (CANCER RESEARCH TECHNOLOGY LIMITED, priority 2014, dated 2019)
